From patent US9994915B2, “miR-211 expression and related pathways in human melanoma” (Sanford-Burnham Medical Research Institute, priority 2010, dated 2018)

Assays:
Format in all cases: cell-based, human
PDK4 protein = assay: western blot of PDK4 protein; details: miR-211-expressing melanoma cells, gel (FIG. 38)
From the text: This target was further confirmed by the cleavage assay, and the downregulation was verified by western blot analysis (FIG. 38). Similarly, peroxisome proliferator-activated receptor-γ coactivator (PGC1α) was identified by the proteomics data and validated by western blot analysis. PGC1α is a low express gene in A375 cells, but it is been targeted by miR-211 according to target cleavage and qPCR results. Finally, insulin-like growth factor-binding protein 5 (IGFBP5) was identified through the RNA-seq data and results are illustrated in FIG. 34.

A375 melanoma cells [1] = assay: cell proliferation (cell counts) of A375 lines; details: A375/211
Method: (§1) The over-expression of KCNMA1 is often associated with both cell proliferation and cell migration/invasion in various cancers. Therefore, the effects of depletion of miR-211 and associated over-expression of KCNMA1 on these process in melanoma cells were determined. Proliferation rates of melanoma cell lines stably transfected with the miR-211 expression cassette were compared with those of untransfected melanoma cells and cell lines transfected with the empty expression vector (FIG. 8A), respectively.
(§2) Assays were performed using WM1552C, WM1552C/VO, WM1552C/211(400), WM1552C/211(800), A375, A375/VO, and A375/211 cell lines. Cells were grown in log phase, trypsinized, counted using an automated cell counter (Cellometer®, Nexcelom Bioscience), and then seeded into 75 cm^2 flasks at 5×10^5 cells per flask (in triplicate). Media was changed after 6 hours, and cells were further fed every 48 hours (Complete Tu Media). At days 4, 10, 15, and 21, cells were trypsinized, counted (Cellometer®, Nexcelom Bioscience), and then reseeded. Each assay was performed in duplicate for all cell lines.

[2] = tested on: hypoxia-inducible factor 1 alpha (HIF-1α); assay: level of HIF-1α in miR-211-expressing cells
Method: (§3) Deep-sequencing (RNA-seq) and proteomics (mass spectrometry) data from two melanoma cell lines A375 and W[…], each expressing miR-211 or the empty vector, were generated. […] Energy consumption was investigated in miR-211-expressing cells. Using the Seahorse XF96 Analyzer, it was determined that miR-211-expressing melanoma cells (A375) consumed nearly double the amount of oxygen as control cells expressing the empty vector (FIG. 35). […] Finally, we measured the level of hypoxia-inducible factor 1 alpha (HIF-1α) in miR-211-expressing cells. HIF-1α expression was reduced by miR-211 expression which is an indication of cellular respiration changes (FIG. 37).

A375 melanoma cells [3] = assay: oxygen consumption, Seahorse XF96 Analyzer; details: miR-211-expressing A375 cells
Method: as §3

WM1552C melanoma cells = assay: cell proliferation (cell counts) of WM1552C lines
Method: as §1, §2

## miR-211: pre-miR-211 sequence stably expressed from plasmid pcDNA4/miR-211 in melanoma cells; mature sequence UUCCCUUUGUCAUCCUUCGCCU (SEQ ID NO: 15) (listed as Homo sapiens)
PDK4 protein
  PDK4 protein expression: virtually undetectable
A375 melanoma cells [1]
  cell proliferation compared to untransfected A375 or A375/VO: grew more slowly
[2]
  HIF-1α expression: reduced
A375 melanoma cells [3]
  amount of oxygen consumed vs empty vector control cells: nearly double
WM1552C melanoma cells; WM1552C/211(400), after a 21-day period
  decrease in cell counts compared to WM1552C: greater than 30%
WM1552C melanoma cells; WM1552C/211(800), after a 21-day period
  decrease in cell proliferation compared to WM1552C: even greater decrease
WM1552C melanoma cells; WM1552C/211 cells, 48 hours
  decrease in growth over the invasion assay period: 8-10%
